In ChEMBL document CHEMBL1201862, “PubChem BioAssay data set” (2004):
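These data come from cells grown in 96-well plates and exposed to compound for 48 hours at five concentrations. GI50: concentration for 50% inhibition of growth.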 Activity calls are given as the source filed them. Rule as the data show it: active = GI50 up to about 1.1 µM and inactive = higher.

Tests used:
Assay in all cases: NCI tumour cell line growth inhibition, 48 h
SW-620 = system: SW-620
MCF7 = system: MCF7
U-251 = system: U-251
NCI-H226 = system: NCI-H226
LOX IMVI = system: LOX IMVI
SF-268 = system: SF-268
HOP-92 = system: HOP-92
A498 = system: A498
HCT-116 = system: HCT-116
OVCAR-4 = system: OVCAR-4
SN12C = system: SN12C
SK-MEL-28 = system: SK-MEL-28
UACC-62 = system: UACC-62
NCI-H522 = system: NCI-H522
HCT-15 = system: HCT-15
KM12 = system: KM12
RPMI-8226 = system: RPMI-8226
SNB-75 = system: SNB-75
UO-31 = system: UO-31
NCI-H23 = system: NCI-H23

| SMILES | GI50 (SW-620) | GI50 (MCF7) | GI50 (U-251) | GI50 (NCI-H226) | GI50 (LOX IMVI) | GI50 (SF-268) | GI50 (HOP-92) | GI50 (A498) | GI50 (HCT-116) | GI50 (OVCAR-4) | GI50 (SN12C) | GI50 (SK-MEL-28) | GI50 (UACC-62) | GI50 (NCI-H522) | GI50 (HCT-15) [µM] | GI50 (KM12) | GI50 (RPMI-8226) | GI50 (SNB-75) | GI50 (UO-31) | GI50 (NCI-H23) |
| --- | --- | --- | --- | --- | --- | --- | --- | --- | --- | --- | --- | --- | --- | --- | --- | --- | --- | --- | --- | --- |
| O=NN(CCCl)C(=O)NC1CCC(=O)NC1=O (centres undefined) | 67.8 µM (inactive) | 330 µM (inactive) | 52.8 µM (inactive) | 232 µM (inactive) | 48.2 µM (inactive) | 38.7 µM (inactive) | 143 µM (inactive) | 174 µM (inactive) | 215 µM (inactive) | 893 µM (inactive) | 243 µM (inactive) | 409 µM (inactive) | 25.5 µM (inactive) | 225 µM (inactive) | 300 | 212 µM (inactive) | 220 µM (inactive) | 60.5 µM (inactive) | 676 µM (inactive) | 277 µM (inactive) |
| COc1ccc2[nH]c3nnc(N)c-3nc2c1 | 9.4 µM (inactive) | 3.99 µM (inactive) | 10.6 µM (inactive) | 3.85 µM (inactive) | 4.11 µM (inactive) | 6.21 µM (inactive) | 10.4 µM (inactive) | 9.79 µM (inactive) | 4.04 µM (inactive) | 20 µM (inactive) | 18.4 µM (inactive) | 11.2 µM (inactive) | 7.01 µM (inactive) | 5.83 µM (inactive) | 7.94 | 5.68 µM (inactive) | 3.87 µM (inactive) | 6.79 µM (inactive) | 9.73 µM (inactive) | 4.17 µM (inactive) |
| Cc1cc(O)c(C(C)C)cc1CN1CCCCC1 | > 100 µM (inactive) | > 100 µM (inactive) | > 100 µM (inactive) | > 100 µM (inactive) | > 100 µM (inactive) | > 100 µM (inactive) | > 100 µM (inactive) | > 100 µM (inactive) | > 100 µM (inactive) | > 100 µM (inactive) | > 100 µM (inactive) | > 100 µM (inactive) | > 100 µM (inactive) | > 100 µM (inactive) | > 100 | > 100 µM (inactive) | > 100 µM (inactive) | > 100 µM (inactive) | > 100 µM (inactive) | > 100 µM (inactive) |
| CN(C)CCSCCO | > 100 µM (inactive) | > 100 µM (inactive) | > 100 µM (inactive) | > 100 µM (inactive) | > 100 µM (inactive) | > 100 µM (inactive) | > 100 µM (inactive) | > 100 µM (inactive) | > 100 µM (inactive) | > 100 µM (inactive) | > 100 µM (inactive) | > 100 µM (inactive) | > 100 µM (inactive) | > 100 µM (inactive) | > 100 | > 100 µM (inactive) | > 100 µM (inactive) | > 100 µM (inactive) | > 100 µM (inactive) | > 100 µM (inactive) |
| COc1ccc(C(c2ccccc2)N2C(=O)CCC2C(=O)O)cc1OC (centres undefined) | > 100 µM (inactive) | > 100 µM (inactive) | > 100 µM (inactive) | > 100 µM (inactive) | > 100 µM (inactive) | > 100 µM (inactive) | > 100 µM (inactive) | > 100 µM (inactive) | > 100 µM (inactive) | > 100 µM (inactive) | > 100 µM (inactive) | 14 µM (inactive) | > 100 µM (inactive) | > 100 µM (inactive) | > 100 | > 100 µM (inactive) | > 100 µM (inactive) | > 100 µM (inactive) | > 100 µM (inactive) | > 100 µM (inactive) |
| Cc1cc2nc3c(C#N)c(C)c(CCCl)c(Cl)n3c2cc1C | 2.34 µM (inactive) | 2.9 µM (inactive) | > 43.5 µM (inactive) | 0.166 µM (active) | 1.46 µM (inactive) | 2.36 µM (inactive) | 2.04 µM (inactive) | 2.92 µM (inactive) | 1.57 µM (inactive) | 6.76 µM (inactive) | 1.92 µM (inactive) | 4.52 µM (inactive) | 1.93 µM (inactive) | 12 µM (inactive) | 1.87 | 6.1 µM (inactive) | 2.58 µM (inactive) | 1.87 µM (inactive) | 2.02 µM (inactive) | 2.12 µM (inactive) |
| Cc1nc2ccc(Cl)cc2c2c1CCN2c1ccccc1 | 18.6 µM (inactive) | 15.1 µM (inactive) | 16.4 µM (inactive) | 7.89 µM (inactive) | 10.3 µM (inactive) | 23 µM (inactive) | 8.59 µM (inactive) | 14.8 µM (inactive) | 3.61 µM (inactive) | 26.4 µM (inactive) | 0.975 µM (active) | 14 µM (inactive) | 10.3 µM (inactive) | 11.7 µM (inactive) | 17.3 | 17.5 µM (inactive) | 12.4 µM (inactive) | 23.7 µM (inactive) | 8.89 µM (inactive) | 14.1 µM (inactive) |
| CN1CCc2cc(N)cc3c2C1Cc1ccc2c(c1-3)OCO2 (centres undefined) | 31 µM (inactive) | 29.4 µM (inactive) | 36.8 µM (inactive) | 34 µM (inactive) | 17.7 µM (inactive) | 33.5 µM (inactive) | 17.7 µM (inactive) | 49.9 µM (inactive) | 27.7 µM (inactive) | 30 µM (inactive) | 26.9 µM (inactive) | 27.2 µM (inactive) | 22.8 µM (inactive) | 18.1 µM (inactive) | 32.3 | 13.5 µM (inactive) | 15.9 µM (inactive) | 31.9 µM (inactive) | 35.2 µM (inactive) | 34 µM (inactive) |
| Cc1cc(N(CCC#N)CCC#N)ccc1C(=N/NC(=O)c1cc(Cl)ccc1O)/N=N/c1cccc(Cl)c1 | 17.8 µM (inactive) | 8.79 µM (inactive) | 25.2 µM (inactive) | 18.8 µM (inactive) | 11.4 µM (inactive) | 11.8 µM (inactive) | 11.8 µM (inactive) | 28.4 µM (inactive) | 12.2 µM (inactive) | 8.85 µM (inactive) | 19.1 µM (inactive) | 16 µM (inactive) | 10.6 µM (inactive) | 13.5 µM (inactive) | 6.62 | 11.2 µM (inactive) | 9.79 µM (inactive) | 13.5 µM (inactive) | 18.9 µM (inactive) | 13.7 µM (inactive) |
| CCCCCC(/C=C/[C@@H]1[C@@H](C(O)CCCCCC(=O)OC)C(=O)C[C@H]1O[Si](C)(C)C(C)(C)C)OCOCCOC (some centres undefined) | 5.12 µM (inactive) | 4.76 µM (inactive) | 7.26 µM (inactive) | 18.2 µM (inactive) | 3.54 µM (inactive) | 14 µM (inactive) | 21 µM (inactive) | 20 µM (inactive) | 4.37 µM (inactive) | 18.5 µM (inactive) | 19.7 µM (inactive) | 15.3 µM (inactive) | 13.1 µM (inactive) | 3.92 µM (inactive) | 7.98 | 6.62 µM (inactive) | 2.71 µM (inactive) | 10.4 µM (inactive) | 15.6 µM (inactive) | 15 µM (inactive) |
| O=C1CC(Cl)c2c(Cl)sc(Cl)c21 (centres undefined) | 1.75 µM (inactive) | 0.794 µM (active) |  | 13.4 µM (inactive) | 1.66 µM (inactive) | 1.79 µM (inactive) | 1.74 µM (inactive) | 12.2 µM (inactive) | 1.69 µM (inactive) | 4.57 µM (inactive) | 1.84 µM (inactive) | 2.1 µM (inactive) | 2.16 µM (inactive) | 1.21 µM (inactive) | 2.02 | 1.67 µM (inactive) | 0.155 µM (active) | 4.56 µM (inactive) | 1.99 µM (inactive) | 2.88 µM (inactive) |
| COc1cc(CN2CCCCC2)cc2cc(C(=O)O)c(=O)oc12 | > 100 µM (inactive) | > 100 µM (inactive) | > 100 µM (inactive) | > 100 µM (inactive) | > 100 µM (inactive) | > 100 µM (inactive) | > 100 µM (inactive) | > 100 µM (inactive) | > 100 µM (inactive) | > 100 µM (inactive) | > 100 µM (inactive) | > 100 µM (inactive) | > 100 µM (inactive) | > 100 µM (inactive) | > 100 | > 100 µM (inactive) | > 100 µM (inactive) | > 100 µM (inactive) | > 100 µM (inactive) | > 100 µM (inactive) |
| Nc1ncn(C2OC(COP(=O)(O)O)C(O)C2O)c(=O)n1 (centres undefined) | > 100 µM (inactive) | > 71 µM (inactive) | > 100 µM (inactive) | > 100 µM (inactive) | > 100 µM (inactive) | > 92 µM (inactive) | > 100 µM (inactive) | > 100 µM (inactive) | 75.9 µM (inactive) | > 100 µM (inactive) | 63.5 µM (inactive) | > 100 µM (inactive) | > 100 µM (inactive) | > 87.9 µM (inactive) | > 100 | > 100 µM (inactive) | > 100 µM (inactive) | > 100 µM (inactive) | > 91.2 µM (inactive) | > 81.8 µM (inactive) |
| CCC[S+]([O-])c1nc(COC(=O)NC)c(COC(=O)NC)n1C (centres undefined) | > 100 µM (inactive) | > 100 µM (inactive) | > 100 µM (inactive) | > 100 µM (inactive) | > 100 µM (inactive) | > 100 µM (inactive) | > 100 µM (inactive) | > 100 µM (inactive) | > 100 µM (inactive) | > 100 µM (inactive) | > 100 µM (inactive) | > 100 µM (inactive) | > 100 µM (inactive) | > 100 µM (inactive) | > 100 | > 100 µM (inactive) | > 100 µM (inactive) | > 100 µM (inactive) | > 100 µM (inactive) | > 100 µM (inactive) |
